Legend:
Assay in all cases: Test D controlled growth environment herbicide test, pre- and postemergence
Assay type in all cases: in vivo
[1] = tested on: wheat, spring (spring wheat, Triticum aestivum)
Outline: (§1)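 Pre-emergence: seeds sown in silt loam soil were sprayed with compound in a non-phytotoxic solvent mix containing surfactant. Post-emergence: plants at 2 to 18 cm (1- to 4-leaf stage) in peat moss/vermiculite medium got the same formulation. Visual 0–100 rating versus controls after 14 to 21 d.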

[2] = tested on: oilseed rape (Brassica napus)
Outline: as §1

[3] = tested on: field violet (Viola arvensis)
Outline: as §1

[4] = tested on: speedwell (bird's-eye speedwell, Veronica persica)
Outline: as §1

[5] = tested on: chamomile (scentless chamomile, Matricaria inodora)
Outline: as §1

[6] = tested on: oat, wild (wild oat, Avena fatua)
Outline: as §1

[7] = tested on: windgrass (Apera spica-venti)
Outline: as §1

[8] = tested on: bromegrass, downy (downy bromegrass, Bromus tectorum)
Outline: as §1

[9] = tested on: mustard, wild (wild mustard, Sinapis arvensis)
Outline: as §1

[10] = tested on: lambsquarters (Chenopodium album)
Outline: as §1

[11] = tested on: radish, wild (wild radish, Raphanus raphanistrum)
Outline: as §1

[12] = tested on: barley, spring (spring barley, Hordeum vulgare)
Outline: as §1

[13] = tested on: deadnettle (henbit deadnettle, Lamium amplexicaule)
Outline: as §1

[14] = Postemergence, 31 g ai/ha, scale 0 to 100 (0 no effect, 100 complete control)
[15] = Postemergence, 125 g ai/ha, visual rating on scale 0 (no effect) to 100 (complete control), 14 to 21 d
[16] = Postemergence, 250 g ai/ha, scale 0 to 100 (0 no effect, 100 complete control)
[17] = Preemergence, 125 g ai/ha, scale 0 to 100 (0 no effect, 100 complete control)
[18] = Preemergence, 250 g ai/ha, scale 0 to 100 (0 no effect, 100 complete control)
[19] = postemergence, 62 g ai/ha, scale 0 to 100, 0 no effect, 100 complete control
[20] = Preemergence, 62 g ai/ha, scale 0 to 100 (0 no effect, 100 complete control)

Cc1nn(C)c(=O)c(-c2c(C)sc3ccc(Cl)cc23)c1O [Compound 104]
20: Plant response rating, Wheat, Spring [1, 15] | Plant response rating (scale of 0 to 100), Oilseed Rape ([2]; Preemergence, 62 g ai/ha) | Bromegrass, Downy plant response rating [8, 14]
30: Plant response rating, Wheat, Spring [1, 16] | Speedwell plant response rating [4, 14] | Plant response rating, Bromegrass, Downy [8, 19]
50: Plant response rating, Deadnettle [13, 19]
45: Plant response rating, Wheat, Spring [1, 18] | Deadnettle plant response rating [13, 14]
10: Wheat, Spring plant response rating [1, 14] | Plant response rating (scale of 0 to 100), Mustard, Wild ([9]; Preemergence, 31 g ai/ha) | Plant response rating, Barley, Spring [12, 15] | Plant response rating, Barley, Spring [12, 19]
75: Plant response rating, Oilseed Rape [2, 19] | Plant response rating (scale of 0 to 100), Oat, Wild ([6]; Preemergence, 31 g ai/ha) | Plant response rating (scale of 0 to 100), Windgrass ([7]; Preemergence, 62 g ai/ha) | Plant response rating, Windgrass [7, 19] | Plant response rating, Mustard, Wild [9, 17] | Plant response rating, Mustard, Wild [9, 19] | Plant response rating (scale of 0 to 100), Lambsquarters ([10]; Preemergence, 31 g ai/ha) | Plant response rating, Radish, Wild [11, 19]
15: Plant response rating (scale of 0 to 100), Wheat, Spring ([1]; Preemergence, 62 g ai/ha) | Plant response rating, Wheat, Spring [1, 19] | Plant response rating (scale of 0 to 100), Oilseed Rape ([2]; Preemergence, 31 g ai/ha) | Plant response rating, Barley, Spring [12, 16] | Plant response rating, Barley, Spring [12, 18]
98: Plant response rating, Field Violet [3, 16]
55: Plant response rating, Oilseed Rape [2, 17] | Plant response rating, Oilseed Rape [2, 18] | Plant response rating, Speedwell [4, 15] | Windgrass plant response rating [7, 14] | Plant response rating, Bromegrass, Downy [8, 15]
65: Plant response rating, Bromegrass, Downy [8, 16] | Plant response rating, Bromegrass, Downy [8, 20] | Plant response rating, Bromegrass, Downy [8, 17] | Plant response rating (scale of 0 to 100), Deadnettle ([13]; Preemergence, 31 g ai/ha)
90: Plant response rating, Oilseed Rape [2, 15] | Plant response rating, Field Violet [3, 19] | Plant response rating, Oat, Wild [6, 19] | Plant response rating, Mustard, Wild [9, 16] | Plant response rating, Radish, Wild [11, 15]
100: Plant response rating (scale of 0 to 100), Field Violet ([3]; Preemergence, 31 g ai/ha) | Plant response rating (scale of 0 to 100), Field Violet ([3]; Preemergence, 62 g ai/ha) | Plant response rating, Field Violet [3, 18] | Plant response rating, Chamomile [5, 16] | Plant response rating, Oat, Wild [6, 16] | Plant response rating, Oat, Wild [6, 18] | Plant response rating, Windgrass [7, 18] | Plant response rating, Lambsquarters [10, 15] | Plant response rating, Lambsquarters [10, 16] | Plant response rating (scale of 0 to 100), Lambsquarters ([10]; Preemergence, 62 g ai/ha) | Plant response rating, Lambsquarters [10, 17] | Plant response rating, Lambsquarters [10, 18] | Plant response rating, Lambsquarters [10, 19] | Plant response rating (scale of 0 to 100), Radish, Wild ([11]; Preemergence, 62 g ai/ha) | Plant response rating, Radish, Wild [11, 18] | Plant response rating, Deadnettle [13, 18]
0: Plant response rating (scale of 0 to 100), Wheat, Spring ([1]; Preemergence, 31 g ai/ha) | Plant response rating (scale of 0 to 100), Bromegrass, Downy ([8]; Preemergence, 31 g ai/ha) | Barley, Spring plant response rating [12, 14] | Plant response rating (scale of 0 to 100), Barley, Spring ([12]; Preemergence, 31 g ai/ha) | Plant response rating, Barley, Spring [12, 20]
85: Field Violet plant response rating [3, 14] | Plant response rating, Chamomile [5, 19] | Oat, Wild plant response rating [6, 14] | Plant response rating, Windgrass [7, 15] | Plant response rating, Windgrass [7, 16] | Plant response rating, Bromegrass, Downy [8, 18] | Plant response rating, Mustard, Wild [9, 15] | Plant response rating, Deadnettle [13, 16]
95: Plant response rating, Oilseed Rape [2, 16] | Plant response rating, Field Violet [3, 15] | Plant response rating, Field Violet [3, 17] | Plant response rating, Chamomile [5, 15] | Plant response rating, Oat, Wild [6, 15] | Plant response rating, Mustard, Wild [9, 18] | Lambsquarters plant response rating [10, 14] | Plant response rating, Radish, Wild [11, 16] | Plant response rating (scale of 0 to 100), Radish, Wild ([11]; Preemergence, 31 g ai/ha) | Plant response rating, Radish, Wild [11, 17]
70: Oilseed Rape plant response rating [2, 14] | Plant response rating, Speedwell [4, 16] | Plant response rating (scale of 0 to 100), Windgrass ([7]; Preemergence, 31 g ai/ha) | Mustard, Wild plant response rating [9, 14] | Plant response rating (scale of 0 to 100), Mustard, Wild ([9]; Preemergence, 62 g ai/ha) | Radish, Wild plant response rating [11, 14] | Plant response rating, Deadnettle [13, 15]
5: Plant response rating, Barley, Spring [12, 17]
80: Chamomile plant response rating [5, 14] | Plant response rating (scale of 0 to 100), Oat, Wild ([6]; Preemergence, 62 g ai/ha) | Plant response rating, Oat, Wild [6, 17] | Plant response rating, Windgrass [7, 17] | Plant response rating (scale of 0 to 100), Deadnettle ([13]; Preemergence, 62 g ai/ha) | Plant response rating, Deadnettle [13, 17]
35: Plant response rating, Wheat, Spring [1, 17] | Plant response rating, Speedwell [4, 19]
